# Data reported in patent EP1322622B1, “NEW N, N'-DISUBSTITUTED BENZIMIDAZOLONE DERIVATIVES WITH AFFINITY AT THE SEROTONIN AND DOPAMINE RECEPTORS” (Sprout Pharmaceuticals, Inc., priority 2000, dated 2002).
# Key:
# [1] = target: T1, 5-HT1A human receptors (Homo sapiens, UniProt P08908); experiment: 5-HT1A Radioligand Receptor Binding Assay ([3H]-8-OH-DPAT, CHO cell membranes); details: for inhibition at 0.1 µM: compound at 10^-7 M, singlicate, [3H]-8-OH-DPAT 0.6-0.7 nM, read-out: 5-HT1A receptor binding assay % inhib. (10^-7 M); for IC50: [3H]-8-OH-DPAT displacement, CHO membranes, read-out: 5-HT1A receptor binding IC50
# T1 construct: expressed in transfected cells; host or cells: CHO cells
# T1 sequence (P08908 1-422): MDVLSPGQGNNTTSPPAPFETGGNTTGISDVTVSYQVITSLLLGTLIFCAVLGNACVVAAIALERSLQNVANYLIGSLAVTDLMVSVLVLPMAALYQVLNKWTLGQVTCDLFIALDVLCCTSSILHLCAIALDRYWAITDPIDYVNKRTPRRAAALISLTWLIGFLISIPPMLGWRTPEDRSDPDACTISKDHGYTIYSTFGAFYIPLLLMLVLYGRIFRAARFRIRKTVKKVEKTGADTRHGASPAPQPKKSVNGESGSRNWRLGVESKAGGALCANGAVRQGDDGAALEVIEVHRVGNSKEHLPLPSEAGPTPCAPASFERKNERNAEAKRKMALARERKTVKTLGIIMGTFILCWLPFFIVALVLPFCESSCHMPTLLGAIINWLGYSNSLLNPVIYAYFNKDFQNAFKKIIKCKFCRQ
# Experimental: Membranes from CHO cells, expressing 5-HT1A human receptors were suspended in incubation buffer.
# The compounds were tested in singlicate at one concentration (10^-7 M) in a total volume of 1000 µl. 980 µl of diluted membranes, 10 µl DMSO or unlabelled ligand and 10 µl of [^3H]-8-OH-DPAT (0.6-0.7 nM) were incubated for 60 min at 27 °C. The reaction was stopped by rapid filtration through Tomtec cell Harvester (48 wells) using Filtermat B (presoaked in 0.1% PEI) filters. […] Non specific binding was determined in the presence of 5-HT (10^-5 M).
# (§1) The specific radioligand binding to the receptor was defined by the difference between total binding and non specific binding, determined in the presence of an excess of unlabelled ligand. Results were expressed as percentage of control specific binding obtained in the presence of the compounds.
# The affinity values (IC50) for the compounds were obtained by a non linear least squares regression analysis on the basis of a one binding site model.
# [2] = target: T2, CHO/5-HT1A cells (Homo sapiens, UniProt P08908); experiment: 5-HT1A Functional assay (cAMP); type: cell-based; details: 10 µM compound, % inhibition of the cAMP accumulation induced by 10 µM FSK; for inhibition at 10 µM: read-out: 5-HT1A cAMP % inhib.
# T2 construct: expressed in transfected cells; host or cells: CHO/5-HT1A cells
# T2 sequence (P08908 1-422): T1 sequence (P08908 1-422)
# Experimental: CHO/5-HT1A cells were random seeded at a density of about 200,000/well in 24 well plates the day prior to the experiment. On the day of the experiment, cells were pretreated for 15 min at 37 °C with 500 µM isobuthylmethylxantine (IBMX) dissolved in culture medium without serum. Wells were then divided in different groups in duplicate as follows: control, 10 µM FSK, 10 µM FSK + 1 µM 5-HT as positive standard and 10 µM FSK + 10 µM of the different compound under evaluation. Sample solutions were added and incubated for additional 15 min at 37 °C. After incubation, medium was aspirated and the reaction stopped by adding 200 µl of lysis buffer. Plates were shaken for 5 min, then the lysate was removed and samples were stored at 4 °C until the day of the assay. For the cAMP evaluation, samples were properly diluted and the cAMP content was measured by an enzymeimmunoassay system.
# [3] = target: T3, D4 human receptors (Homo sapiens, UniProt P21917); experiment: D4 Radioligand Receptor Binding Assay ([3H] YM-09151-2, CHO cell membranes); details: compound at 10^-7 M, singlicate; [3H] YM-09151-2 0.15-0.25 nM; read-out: D4 receptor binding assay % inhib. (10^-7 M)
# T3 construct: expressed in transfected cells; host or cells: CHO cells
# T3 sequence (P21917 1-419): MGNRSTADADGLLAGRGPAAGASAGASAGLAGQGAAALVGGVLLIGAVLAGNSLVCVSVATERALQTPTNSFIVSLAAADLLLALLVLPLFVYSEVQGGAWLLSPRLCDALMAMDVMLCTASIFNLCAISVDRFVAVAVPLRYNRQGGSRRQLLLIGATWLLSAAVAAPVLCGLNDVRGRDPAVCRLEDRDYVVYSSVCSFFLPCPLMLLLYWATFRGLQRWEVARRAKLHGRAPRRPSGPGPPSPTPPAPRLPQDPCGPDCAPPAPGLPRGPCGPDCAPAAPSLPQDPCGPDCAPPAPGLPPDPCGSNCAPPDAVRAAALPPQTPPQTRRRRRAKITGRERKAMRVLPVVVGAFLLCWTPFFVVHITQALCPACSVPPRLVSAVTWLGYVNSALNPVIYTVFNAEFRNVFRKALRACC
# Experimental: Membranes from CHO cells, expressing D4 human receptors were suspended in incubation buffer.
# Binding assays were performed in MultiProbe 204 pipetting system (Packard), according to a predetermined mapping, consistent with the software Screen. The compounds were tested in singlicate at one concentration (10^-7 M) in a total volume of 1000 µl (980 µl of diluted membranes, 10 µl DMSO or unlabelled ligand and 10 µl of [^3H] YM-09151-2 (0.15-0.25 nM). After incubation for 120 min at 27 °C, the reaction was stopped by rapid filtration through Tomtec cell Harvester (48 wells) using Filtermat B (presoaked in 0.1% PEI) filters. Filters were washed with ice-cold 50 mM Tris-HCl (pH 7.4) buffer (9 x 700 µl), dryed, covered with MeltiLex B/HS (Wallac) scintillator sheets and heated in oven at 80-90 °C for about 10 min, transferred into plastic sample bags (Wallac), sealed and put into 1024 Beta Plate scintillation counter (Wallac). Non specific binding was determined in the presence of clozapine dissolved in DMSO to a final concentration of 10^-5 M.
# as §1
Structure (SMILES),inhibition at 0.1 µM [1],inhibition at 10 µM [2],inhibition at 0.1 µM [3],also measured
O=c1n(C/C=C\CN2CC=C(c3ccccc3)CC2)c2ccccc2n1CCO [compound 370],93%,52%,60%,
O=c1n(CCO)c2ccccc2n1CCN1CCN(c2cccc(C(F)(F)F)c2)CC1 [compound 187],94%,44%,36%,IC50 [1]: 8.2 nM
O=c1n(CCO)c2ccccc2n1CCCCN1CCN(c2cccc(Cl)c2)CC1 [compound 60],93%,65%,82%,IC50 [1]: 6.2 nM
COCCn1c(=O)n(C/C=C/CN2CCN(c3ccccn3)CC2)c2ccccc21 [compound 296],,82%,,
CCNC(=O)OCCn1c(=O)n(CCN2CCN(c3ccccc3Cl)CC2)c2ccccc21 [compound 219],89%,61%,37%,IC50 [1]: 15 nM
CCNC(=O)OCCn1c(=O)n(C/C=C/CN2CCN(c3ccccn3)CC2)c2ccccc21 [compound 415],,82%,,
CCNC(=O)OCCn1c(=O)n(CCN2CCN(c3cccc(C)c3)CC2)c2ccccc21 [compound 217],,68%,,IC50 [1]: 5.2 nM
CC(=O)NCCn1c(=O)n(CCN2CCN(c3cccc(C)c3C)CC2)c2ccccc21 [compound 446],92%,81%,31%,IC50 [1]: 7.3 nM
O=c1n(C/C=C/CN2CCN(c3ccccn3)CC2)c2ccccc2n1CCO [compound 381],,79%,,
CS(=O)(=O)NCCn1c(=O)n(CC=CCN2CCN(c3cccc(Cl)c3)CC2)c2ccccc21 [compound 499],,74%,,
CS(=O)(=O)NCCn1c(=O)n(C/C=C/CN2CCN(c3ccccn3)CC2)c2ccccc21 [compound 520],,70%,,
CCNC(=O)OCCn1c(=O)n(CC=CCN2CC=C(c3ccccc3)CC2)c2ccccc21 [compound 421],,,,5-HT1A cAMP % inhib. [2]: 56%
CS(=O)(=O)NCCn1c(=O)n(C/C=C\CN2CCN(c3cccc(C(F)(F)F)c3)CC2)c2ccccc21 [compound 503],,87%,,
Cc1cccc(N2CCN(C/C=C/Cn3c(=O)n(CCNS(C)(=O)=O)c4ccccc43)CC2)c1 [compound 536],,55%,,IC50 [1]: 9.5 nM
O=c1n(C/C=C\CN2CCN(c3cccc(Cl)c3)CC2)c2ccccc2n1CCO [compound 365],89%,82%,,
O=c1n(C/C=C\CN2CCN(c3cccc(Cl)c3)CC2)c2ccccc2n1CCN1CCOCC1 [compound 263],,63%,,
CC(=O)NCCn1c(=O)n(C/C=C\CN2CCN(c3cccc(C)c3C)CC2)c2ccccc21 [compound 468],,66%,,IC50 [1]: 3.1 nM
COCCn1c(=O)n(CC=CCN2CCN(c3cccc(C(F)(F)F)c3)CC2)c2ccccc21 [compound 301],,,,5-HT1A cAMP % inhib. [2]: 83%
CC(=O)NCCn1c(=O)n(C/C=C\CN2CCN(c3cccc(C(F)(F)F)c3)CC2)c2ccccc21 [compound 459],,86%,,
O=c1n(C/C=C/CN2CCN(c3ccccn3)CC2)c2ccccc2n1CCN1CCOCC1 [compound 347],,65%,,

Structure (SMILES),inhibition at 0.1 µM [1],inhibition at 10 µM [2],inhibition at 0.1 µM [3],also measured
Cc1cccc(N2CCN(CC=CCn3c(=O)n(CCNS(C)(=O)=O)c4ccccc43)CC2)c1 [compound 514],,67%,,
O=c1n(C/C=C\CN2CC=C(c3ccccc3)CC2)c2ccccc2n1CCN1CCCCC1 [compound 319],94%,,70%,
O=c1n(CC=CCN2CCc3c([nH]c4ccccc34)C2)c2ccccc2n1CCN1CCOCC1 [compound 265],55%,,78%,
CCNC(=O)OCCn1c(=O)n(CCN2CCN(c3cccc(Cl)c3)CC2)c2ccccc21 [compound 202],,72%,,IC50 [1]: 1.7 nM
COCCn1c(=O)n(CC=CCN2CCN(c3cccc(C(F)(F)F)c3)CC2)c2ccccc21 [compound 284],,82%,,
COCCn1c(=O)n(C/C=C/CN2CCN(c3cccc(Cl)c3)CC2)c2ccccc21 [compound 297],,74%,,
O=c1n(C/C=C\CN2CCN(c3ccccc3)CC2)c2ccccc2n1CCO [compound 361],86%,,46%,
CS(=O)(=O)NCCn1c(=O)n(CCN2CCN(c3cccc(Cl)c3)CC2)c2ccccc21 [compound 241],69%,,32%,
O=c1n(C/C=C/CN2CCN(c3cccc(C(F)(F)F)c3)CC2)c2ccccc2n1CCN1CCOCC1 [compound 352],,79%,,
CCNC(=O)OCCn1c(=O)n(CC=CCN2CCN(c3cccc(C(F)(F)F)c3)CC2)c2ccccc21 [compound 420],,,,5-HT1A cAMP % inhib. [2]: 87%
CC(=O)NCCn1c(=O)n(C/C=C\CN2CCN(c3ccccc3Cl)CC2)c2ccccc21 [compound 472],,67%,,
COc1ccccc1N1CCN(CCCCn2c(=O)n(CCO)c3ccccc32)CC1 [compound 74],92%,,62%,
CCNC(=O)OCCn1c(=O)n(CC=CCN2CCN(c3cccc(C(F)(F)F)c3)CC2)c2ccccc21 [compound 403],,84%,,
O=c1n(C/C=C\CN2CCN(C(c3ccccc3)c3ccc(Cl)cc3)CC2)c2ccccc2n1CCN1CCCCC1 (stereo not drawn) [compound 311],59%,,60%,
COc1ccccc1N1CCN(CCn2c(=O)n(CCNS(C)(=O)=O)c3ccccc32)CC1 [compound 255],58%,,33%,
CS(=O)(=O)NCCn1c(=O)n(C/C=C\CN2CCc3c([nH]c4ccccc34)C2)c2ccccc21 [compound 501],70%,,63%,
CS(=O)(=O)NCCn1c(=O)n(CC=CCN2CCN(c3cccc(Cl)c3)CC2)c2ccccc21 [compound 521],,,,5-HT1A cAMP % inhib. [2]: 67%
O=c1n(CCO)c2ccccc2n1CCCCN1CCN(c2ccccn2)CC1 [compound 59],75%,,51%,
Cc1cccc(N2CCN(C/C=C\Cn3c(=O)n(CCNS(C)(=O)=O)c4ccccc43)CC2)c1C [compound 512],,68%,,
O=c1n(CCN2CC=C(c3ccccc3)CC2)c2ccccc2n1CCN1CCCCC1 [compound 150],57%,,52%,
